Measurements published in BigSolDB 2.1.

O=C1/C(=C/c2ccc(O)cc2)CCC/C1=C\c1ccc(O)cc1
solubility (mole fraction)
Conditions	in 1,4-dioxane	in DMF	in DMSO	in THF	in acetic acid	in acetone	in ethyl acetate	in methanol	in n-butanol	in n-propanol
299.15 K	0.0074	0.0332	0.0112	0.023	0.0032	0.0049	0.0021	0.0034	0.0134	0.0013
303.15 K	0.0085	0.0388	0.0132	0.0256	0.0034	0.0061	0.0031	0.0041	0.0142	0.0023
308.15 K	0.0101	0.0458	0.0156	0.0281	0.0036	0.0073	0.004	0.0051	0.0152	0.0036
313.15 K	0.0115	0.0556	0.0251	0.0319	0.0039	0.0093	0.0053	0.0066	0.0164	0.0056
318.15 K	0.0135	0.0658	0.0371	0.0387	0.0044	0.0114	0.0069	0.0086	0.0178	0.0086
323.15 K	0.0153	0.0816	0.0528	0.0461	0.0052	0.0128	0.0102	0.0102	0.021	0.0123
328.15 K	0.0172	0.106	0.0742	0.0527	0.0063	0.0147	0.0136	0.0129	0.0235	0.0169
